This note sets out measurements from patent publication US12678413B2, “Compositions containing pterosin compound and derivatives thereof active ingredients for prevention or treatment of degenerative brain diseases” (priority 2017, dated 2026).

By IC50 is commonly meant the point on the concentration scale where inhibition reaches its midpoint. As a reminder, the Ki is the equilibrium dissociation constant of an inhibitor or competing ligand from its target. Higher therefore signals weaker binding.

The target in data set [1] is T1, BACE1 (β-secretase, recombinant human enzyme) (Homo sapiens, UniProt P56817).
T1 construct: purchased Pan Vera Co. (Madison, WI, USA)
The data set can be described thus: In vitro BACE1 activity assay (FRET kit). Format: biochemical. To be noted: compounds in 10% DMSO, concentrations up to 125 μM. An excerpt:
BACE1 (beta-secretase) FRET assay kit was purchased from Pan Vera Co. (Madison, WI, USA). All the chemicals and solvents used in column chromatography were of reagent grade and were used as received without further purification.
A BACE1 fluorescence resonance energy transfer (FRET) assay kit (β-secretase, recombinant human enzyme) was purchased from Pan Vera Co. (Madison, WI, USA).
BACE1 is an enzyme promotive of the production of β-amyloid, which destroys neurons. In order to examine the effects on the compounds of Table 1 on the activity of BACE1, IC(inhibition concentrations)50 values were determined by measuring BACE1 activity in vitro according to Experimental Methods.

Data set [2] deals with T2, acetylcholinesterase (AChE) (Electrophorus electricus, UniProt O42275).
T2 construct: purchased Sigma-Aldrich Co. (St. Louis, MO, USA)
The data set can be described thus: In vitro cholinesterase activity assay (Ellman), AChE. To be noted: for IC50: concentrations up to 125 μM, Mean ± SEM, read-out: IC50 Acetylcholine Esterase Mean ± SEM; for SI: selectivity index (BChE/AChE): ratio of IC50 BChE/AChE. Format: biochemical. The method, then: (§1) The reaction started with the addition of 10 μL of DTNB and 10 μL of Ach or Bch.
(§2) Briefly, the basis for this assay is the hydrolysis of acetylthiocholine by acetylcholinesterase, producing thiocholine that reacts with DTNB. […] Degrees of inhibition were calculated according to […] wherein E and S represent enzyme activities in the presence and absence of a test sample, respectively.
(§3) The compounds of Table 1 were evaluated for anti-Alzheimer activity. In this regard, inhibitory activity against AChE (acetylcholinesterase) and BChE (butyrylcholinesterase), which lyse acetylcholine in the central nervous system, was measured according to the Experimental Method to calculate IC(inhibition concentrations)50 values.
Background: Ellman's reagent forms a yellow product with free thiols.

In data set [3] the test system is NIH3T3 cells. The data set can be described thus: MTT cytotoxicity assay, normal cell line NIH3T3. Format: cell-based. To be noted: NIH3T3 mouse embryo fibroblast, 48 hours incubation. The method, then:
(§4) The normal cell line NIH3T3 (mouse embryo fibroblast cell-line) and the cancerous cell line B16F10 (mouse melanoma cell-line) were separately grown in 96-well plates and incubated for 48 hours with predetermined concentrations of each of the compounds. After additional incubation with MTT, absorbance at 550 nm was read using a microplate reader. Absorbance is an index accounting for a number of viable cells and was used to calculate cell proliferation rates according to the following formula. All experiments were conducted three times for reproducibility. Cell proliferation rate (%)=OD550(sample)/OD550(control)
(§5) Then, LD50 (Lethal Dose 50) values were calculated on the basis of changes in the cell proliferation rate.
For orientation: Tetrazolium assays rely on reduction of a dye to a coloured formazan, in cell work by metabolically active cells.

Data set [4] deals with T3, butyrylcholinesterase (BChE) (Equus caballus, UniProt P81908).
T3 construct: horse serum butyrylcholinesterase (BChE, EC3.1.1.8); purchased Sigma-Aldrich Co. (St. Louis, MO, USA); host or cells: horse serum
Description: In vitro cholinesterase activity assay (Ellman), BChE. Format: biochemical. The following applies: concentrations up to 125 μM; Mean ± SEM; read-out: IC50 Butyrylcholine esterase Mean ± SEM. As to the method:
as §1, §2, §3

Data set [5] relates to B16F10 cells. The data set can be described thus: MTT cytotoxicity assay, cancerous cell line B16F10. The following applies: B16F10 mouse melanoma, 48 hours incubation. Format: cell-based. As to the method: as §4, §5
Data set [6] deals with T4, BACE1 (Homo sapiens, UniProt P56817).
T4 construct: purchased Pan Vera Co. (Madison, WI, USA)
The data set can be described thus: BACE1 enzyme kinetics (Dixon plot and Lineweaver plot). Format: biochemical. As to the method: A BACE1 fluorescence resonance energy transfer (FRET) assay kit (β-secretase, recombinant human enzyme) was purchased from Pan Vera Co. (Madison, WI, USA). The assay was carried out according to the manual provided, with a modification made thereto as described by Jung et al. (Jung et al., Biol Pharm Bull, 2010, 33:267-272). Quercetin was used as a positive control.
In addition, an enzyme kinetics experiment was conducted using the Lineweaver plot and Dixon plot (see FIG. 7) in order to examine the BACE1 inhibition mechanism of the novel compound (Compound 2). […] The results of the experiment indicate that the novel compound of the present disclosure is a very potent inhibitor against BACE1.

Data set [7] deals with T2, acetylcholinesterase (AChE). The data set can be described thus: AChE enzyme kinetics (Dixon plot and Lineweaver plot). Format: biochemical. As to the method: as §1, §2
The target in data set [8] is T3, butyrylcholinesterase (BChE). Description: BChE enzyme kinetics (Dixon plot and Lineweaver plot). It counts as biochemical. As to the method: as §1, §2

Structures are written as SMILES. Like-named read-outs stand apart in the source and are kept apart here.

T2 sequence (O42275 24-633): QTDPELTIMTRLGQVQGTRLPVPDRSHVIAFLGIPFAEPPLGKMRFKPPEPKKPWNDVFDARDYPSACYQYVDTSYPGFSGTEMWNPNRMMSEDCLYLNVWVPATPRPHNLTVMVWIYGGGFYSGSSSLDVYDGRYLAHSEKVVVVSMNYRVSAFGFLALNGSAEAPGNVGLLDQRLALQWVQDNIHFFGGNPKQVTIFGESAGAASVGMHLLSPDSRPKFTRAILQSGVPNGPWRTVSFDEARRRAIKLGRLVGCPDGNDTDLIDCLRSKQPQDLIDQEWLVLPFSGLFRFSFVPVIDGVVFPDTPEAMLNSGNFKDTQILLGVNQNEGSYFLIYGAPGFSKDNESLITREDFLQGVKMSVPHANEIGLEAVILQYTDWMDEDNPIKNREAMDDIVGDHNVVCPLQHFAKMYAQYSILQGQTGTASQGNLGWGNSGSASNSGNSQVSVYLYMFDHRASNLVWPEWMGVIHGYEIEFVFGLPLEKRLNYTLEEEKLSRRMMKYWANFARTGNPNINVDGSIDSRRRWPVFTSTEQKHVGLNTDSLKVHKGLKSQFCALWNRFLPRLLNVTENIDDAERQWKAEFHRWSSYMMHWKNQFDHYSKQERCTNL
T3 sequence (P81908 whole entry): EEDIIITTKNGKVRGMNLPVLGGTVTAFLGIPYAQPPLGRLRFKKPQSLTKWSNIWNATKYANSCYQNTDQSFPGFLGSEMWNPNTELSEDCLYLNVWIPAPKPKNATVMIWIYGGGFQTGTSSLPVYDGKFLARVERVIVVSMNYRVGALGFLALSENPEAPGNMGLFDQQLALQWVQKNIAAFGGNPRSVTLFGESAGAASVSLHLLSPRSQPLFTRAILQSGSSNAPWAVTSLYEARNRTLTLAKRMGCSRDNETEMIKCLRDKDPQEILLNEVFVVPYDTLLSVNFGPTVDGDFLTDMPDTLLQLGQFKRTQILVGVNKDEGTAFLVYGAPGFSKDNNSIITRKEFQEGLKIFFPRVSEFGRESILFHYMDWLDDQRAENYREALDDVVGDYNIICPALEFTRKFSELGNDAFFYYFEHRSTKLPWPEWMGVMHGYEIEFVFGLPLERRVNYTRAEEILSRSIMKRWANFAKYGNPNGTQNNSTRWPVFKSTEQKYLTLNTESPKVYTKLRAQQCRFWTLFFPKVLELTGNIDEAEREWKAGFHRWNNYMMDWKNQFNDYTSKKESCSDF
T1 sequence (P56817 46-501): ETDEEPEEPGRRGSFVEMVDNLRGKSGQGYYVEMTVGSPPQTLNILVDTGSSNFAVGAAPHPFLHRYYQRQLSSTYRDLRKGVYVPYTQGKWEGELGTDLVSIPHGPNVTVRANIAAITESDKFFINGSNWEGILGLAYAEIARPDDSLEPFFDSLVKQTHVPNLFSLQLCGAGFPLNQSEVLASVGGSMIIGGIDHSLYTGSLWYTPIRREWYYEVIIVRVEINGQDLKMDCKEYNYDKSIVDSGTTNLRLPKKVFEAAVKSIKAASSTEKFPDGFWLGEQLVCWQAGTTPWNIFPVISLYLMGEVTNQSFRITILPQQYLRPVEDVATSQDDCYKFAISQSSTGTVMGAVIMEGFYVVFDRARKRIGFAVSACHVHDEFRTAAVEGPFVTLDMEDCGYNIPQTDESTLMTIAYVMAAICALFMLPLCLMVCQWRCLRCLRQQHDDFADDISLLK
T4 sequence (P56817 46-501): as above

In the case of `Cc1cc2c(c(C)c1CCO[C@@H]1OC(CO)[C@@H](O)C(O)C1O)C(=O)[C@](C)(O)C2` (single isomer, unassigned; (-)) [Compound 18, (−)-pteroside N], the values for the IC50 in data set [1], in data set [2] and in data set [4] were 30.6 ± 1.8 µM, 4.47 ± 0.29 µM and 7.39 ± 0.99 µM, respectively. Besides, the “SI: selectivity index (BChE/AChE)” value in data set [2] came out at 1.7. In data set [3], the “LD50 Normal cell NIH3T3” value is listed as >5,000 μM. Also, the “LD50 Cancer cell B16F10” value in data set [5] is >5,000 μM.

For `Cc1cc2c(c(C)c1CCO[C@@H]1OC(CO)[C@@H](O)[C@H](O)C1O)C(=O)[C@](C)(CO)C2` (stereo partly drawn) [Compound 12, (2S)-pteroside A], the IC50 in data set [1] worked out at 84.6 ± 6 µM; in data set [2], 110 ± 3 µM; in data set [4], 19.4 ± 0.22 µM. Further, the “SI: selectivity index (BChE/AChE)” value in data set [2] was 0.17. Besides, the “LD50 Normal cell NIH3T3” value in data set [3] was >5,000 μM. The “LD50 Cancer cell B16F10” value in data set [5] is given as >5,000 μM.

For `Cc1cc2c(c(C)c1CCO[C@@H]1OC(CO)[C@@H](O)[C@H](O)C1O)C(=O)[C@H](C)C2` (stereo partly drawn) [Compound 14, (2R)-pteroside B], the “Inhibition type BACE1” value in data set [6] is reported as “noncompetitive type”; in data set [6] (listed as (2R)-Pteroside B) it was “Noncompetitive”. The same compound displayed a Ki in data set [6] of 72.5 µM. Further, the IC50 turned out to be 43.4 ± 3 µM in data set [1] and 17.6 ± 3.1 µM in data set [4]. In addition, the “Inhibition type Acetylcholinesterase” value in data set [7] was “mixed type”; in data set [7] (listed as (2R)-Pteroside B) it was “Mixed-type”. Moreover, the “SI: selectivity index (BChE/AChE)” value in data set [2] was 6.9. For the same compound, the “LD50 Normal cell NIH3T3” value in data set [3] is >5,000 μM. For the same compound, in data set [5], the “LD50 Cancer cell B16F10” value is on record as >5,000 μM. Besides, the “Inhibition type Butyrylcholinesterase” value in data set [8] is “mixed type”; in data set [8] (listed as (2R)-Pteroside B), “Mixed-type”.

Consider `Cc1cc2c(c(C)c1CCO[C@@H]1OC(CO)[C@@H](O)[C@H](O)C1O)C(=O)C(C)(C)[C@H]2O` (stereo partly drawn) [Compound 17, (3S)-pteroside D], for which the “Inhibition type BACE1” value is “mixed type” in data set [6] and “Mixed-type” in data set [6] (listed as (3S)-Pteroside D). In data set [6], the Ki worked out at 16.5 µM. For the same compound, the IC50 in data set [1] was 10.7 ± 1.5 µM. In data set [2], the “SI: selectivity index (BChE/AChE)” value worked out at 0.70. Also, the “LD50 Normal cell NIH3T3” value in data set [3] is reported as >5,000 μM. The “LD50 Cancer cell B16F10” value in data set [5] is reported as >5,000 μM.

In the case of `Cc1c(CCO[C@@H]2OC(CO)[C@@H](O)[C@H](O)C2O)c(CO)cc2c1C(=O)[C@@H](C)C2` (stereo partly drawn) [Compound 19, (2S)-pteroside P], the IC50 in data set [1] worked out at 81.3 ± 3.9 µM; in data set [2], 57.5 ± 3.2 µM; in data set [4], 33.2 ± 3 µM. In data set [2], the “SI: selectivity index (BChE/AChE)” value was 0.57. Further, the “LD50 Normal cell NIH3T3” value in data set [3] was >5,000 μM. In data set [5], the “LD50 Cancer cell B16F10” value is listed as >5,000 μM.
